Measurements from patent US12459951B2, “Compounds that interact with RAS superfamily proteins for treatment of cancers, inflammatory diseases, rasopathies, and fibrotic disease” (SHY Therapeutics, LLC, priority 2022, dated 2025).

Tests used:
[1] = test system: Smad2/Smad3 phosphorylation; experiment: Phospho-Smad2/3 Inhibition Assay (western blot), Panc-1; assay type: cell-based, human; conditions: at 10 μM, Panc-1 pancreatic cancer cell line; starred symbols = activation
Summary of the method: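 Panc-1 cells (KRas G12D), starved overnight in 0.5% FBS, treated 3 h at 37° C with compound at 10 μM final (0.3% DMSO) or serial dilutions for IC50, then stimulated with 10 ng/ml TGF-b1 for 1 h. Phospho-Smad2 (Ser465/467) and phospho-Smad3 (Ser423/425) detected by western blot.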

[2] = test system: MiaPaca-2 (expressing KRAS G12C mutant); experiment: Proliferation Assay (Cell Viability Assay); assay type: cell-based; conditions: Homo sapiens, MIA PaCa-2; read-out: Proliferation in MiaPaca-2: IC50
Summary of the method: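 MiaPaca-2 cells (KRAS G12C) were grown in DMEM-high glucose with 10% FBS, seeded at 2000–5000 cells/well and cultured overnight. Compounds were added at 10 μM final, or as serial dilutions for IC50, in 0.3% DMSO/10% FBS for 2–4 days at 37 °C, 5% CO2. Viability was measured with CellTiter 96 Aqueous One and % inhibition calculated.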

TNF-alpha = TNF-alpha Quantification Assay (ELISA), LPS-stimulated RAW 264.7; assay type: cell-based; conditions: Mus musculus, RAW264.7; at 10 μM; read-out: TNFα: % inh.
IL6 = experiment: IL-6 Quantification Assay (ELISA), LPS-stimulated RAW 264.7; assay type: cell-based; parameters: inhibition: dose or concentration left out as unconfirmed; conditions: Mus musculus, RAW264.7, read-out: IL-6: % inh.

IC50 [2] [µM] | Structure (SMILES) | % inh of Smad2/3 phosphorylation in Panc-1 [1] | inhibition at 10 µM (TNF-alpha) [%] | inhibition (IL6) [%] | inhibition at 10 µM (IL6; at 10 μM) [%]
0.51 to 1 | COc1cccc(-c2cn3nc(-c4nccn4C)nc(N[C@@H]4CC[C@H](OC)C4)c3c2-c2ccccc2)c1Cl (racemic) [Compound 33, rac 6-(2-Chloro-3-methoxyphenyl)-N-((1R,3S)-3-methoxycyclopentyl)-2-(1-methyl-1H-imidazol-2-yl)-5-phenylpyrrolo[2,1-f][1,2,4]triazin-4-amine] | D (D = 76-100% inhibition) | 75 to 100 |  | 75 to 100
> 1 | COc1cccc(Nc2nc(-c3nccn3C)nn3ccc(C)c23)n1 [Compound 38, N-(6-Methoxypyridin-2-yl)-5-methyl-2-(1-methyl-1H-imidazol-2-yl)pyrrolo[2,1-f][1,2,4]triazin-4-amine] | 0 (0 = 0% inhibition) | 1 to 24 | 25 to 49 | 
> 1 | COc1cccc(-c2cn3nc(-c4nccn4C)nc(N[C@H]4C[C@H](OC)C4)c3c2-c2ccn(C)n2)c1F [Compound 47, 6-(2-Fluoro-3-methoxyphenyl)-N-((1r,3r)-3-methoxycyclobutyl)-2-(1-methyl-1H-imidazol-2-yl)-5-(1-methyl-1H-pyrazol-3-yl)pyrrolo[2,1-f][1,2,4]triazin-4-amine] | D (D = 76-100% inhibition) | 1 to 24 | 0 | 
> 1 | Cc1c(-c2ccn(C(C)C)n2)cn2nc(-c3nccn3C)nc(Nc3cc(C4CC4)no3)c12 [Compound 69, 3-Cyclopropyl-N-(6-(1-isopropyl-1H-pyrazol-3-yl)-5-methyl-2-(1-methyl-1H-imidazol-2-yl)pyrrolo[2,1-f][1,2,4]triazin-4-yl)isoxazol-5-amine] | A (A = 1-25% inhibition) | 1 to 24 | 50 to 74 | 
> 1 | Cc1c(-c2ccn(C)n2)cn2nc(-c3nccn3C)nc(N3CCc4cc(C(F)(F)F)cnc43)c12 [Compound 251, 5-Methyl-2-(1-methyl-1H-imidazol-2-yl)-6-(1-methyl-1H-pyrazol-3-yl)-4-(5-(trifluoromethyl)-2,3-dihydro-1H-pyrrolo[2,3-b]pyridin-1-yl)pyrrolo[2,1-f][1,2,4]triazine] | A* (A* = 1-25% activation) |  |  | 

Continued, compound first:

Structure (SMILES) | IC50 [2] [µM] | % inh of Smad2/3 phosphorylation in Panc-1 [1] | inhibition at 10 µM (TNF-alpha) [%] | inhibition (IL6) [%] | inhibition at 10 µM (IL6; at 10 μM) [%]
Cn1ccnc1-c1nc(OCCN2CCCC2)c2c(-c3ccccc3)ccn2n1 [Compound 41, 2-(1-Methyl-1H-imidazol-2-yl)-5-phenyl-4-(2-(pyrrolidin-1-yl)ethoxy)pyrrolo[2,1-f][1,2,4]triazine] | > 1 | A* (A* = 1-25% activation) | 1 to 24 | 1 to 24 | 
Cc1c(-c2ccn(C)n2)cn2nc(-c3nccn3C)nc(Nc3cc(C(F)F)[nH]n3)c12 [Compound 258, N-(5-(Difluoromethyl)-1H-pyrazol-3-yl)-5-methyl-2-(1-methyl-1H-imidazol-2-yl)-6-(1-methyl-1H-pyrazol-3-yl)pyrrolo[2,1-f][1,2,4]triazin-4-amine] | > 1 | A* (A* = 1-25% activation) | 0 | 0 | 
COC[C@@H]1CC[C@@H]1CNc1nc(-c2ccccn2)nn2cc(-c3ccn(C(C)C)n3)c(-c3ccccc3)c12 (racemic) [Compound 26, rac 6-(1-Isopropyl-1H-pyrazol-3-yl)-N-(((1S,2R)-2-(methoxymethyl)cyclobutyl)methyl)-5-phenyl-2-(pyridin-2-yl)pyrrolo[2,1-f][1,2,4]triazin-4-amine] | 0.51 to 1 | C (C = 46-75% inhibition) | 1 to 24 | 50 to 74 | 
COc1cccc(-c2cn3nc(-c4nccn4C)nc(O)c3c2-c2ccccc2)c1Cl [Compound 28, 6-(2-Chloro-3-methoxyphenyl)-2-(1-methyl-1H-imidazol-2-yl)-5-phenylpyrrolo[2,1-f][1,2,4]triazin-4-ol] | > 1 | 0 (0 = 0% inhibition) | 1 to 24 | 25 to 49 | 
